# Experimental data from patent publication US20060069155A1, “Method for reducing exacerbations associated with COPD” (priority 2000, published 2006).
# “Also recorded” adds a separate entry of the source.
# How the values were obtained:
# [1] = test system: COPD exacerbations in patients with COPD; assay: Clinical Study A: placebo-controlled, double-blind 6-month study of Ariflo 15 mg BID in COPD patients; type: in vivo, human; settings: for Number of Patients Exacerbation-free / Estimated Percentage Exacerbation-Free (Exacerbation-free Survival Rate): 24 weeks, ITT, 15 mg BID; for Estimated Percentage Exacerbation-Free (Exacerbation-free Survival Rate): Kaplan-Meier estimate
# Description: (§1) Acute COPD exacerbations, defined as worsening of COPD symptoms that required changes in treatment including antimicrobial therapy, a short course of oral corticosteroids or other bronchodilator therapy. Exacerbations were categorized to three levels: • Level 1: self-managed by the patient at home by increasing usual medication for COPD. • Level 2: requiring additional treatment prescribed by a family or primary care physician or as a result of a hospital outpatient visit including a visit to the Emergency Room. • Level 3: requiring the patient to be admitted to the hospital for treatment. Clinical trials in COPD patients were carried out to investigate the efficacy of an 15 mg immediate release tablet, BID of Ariflo. […] In each of the studies, patients with COPD entered a 4-week placebo run-in period and were then randomized to receive Ariflo 15 mg twice daily or placebo in a ratio of 2 to 1. Patients were monitored following 1, 2 and 4 weeks of treatment and subsequently at 4-week intervals. Patients were permitted to receive concomitant salbutamol (prn) and/or short acting anticholinergic therapy at a stable dose during these studies. Pulmonary function measurements were performed at each visit (with the exception of Week 1). The St. George's Respiratory Questionnaire (SGRQ) was administered at Baseline, and Weeks 12 and 24 (or at the time of withdrawal). Routine compliance, vital sign, and laboratory assessments were performed at each visit. These studies included frequent ECG assessments and extensive monitoring of patients reporting gastrointestinal adverse experiences of potential clinical concern to address concerns about possible effects of SB 207499 on both cardiovascular and gastrointestinal body systems. 12-lead ECG assessments were conducted at screening, prior to dosing at Baseline, and prior to dosing at each visit during the double-blind treatment period. In addition, 12-lead ECGs were performed 3 hours after the administration of drug on the first and last day of dosing. In a subset of patients, 24-hour Holter ECG monitoring was conducted during Run-in and at Weeks 1 and 20. Orthostatic vital signs and faecal occult blood tests were determined for all patients in order to obtain a general incidence of abnormal assessments in this patient population. Orthostatic vital signs were determined at Screening, Baseline and the end of double-blind treatment. Faecal occult blood tests were performed between Screening and Baseline and between 20 weeks and the end of double-blind treatment (24 weeks).
# [2] = test system: COPD exacerbations in patients with COPD; assay: Clinical Study B: placebo-controlled, double-blind study of Ariflo 15 mg BID in COPD patients; type: in vivo, human; settings: for Number of Patients Exacerbation-free / Estimated Percentage Exacerbation-Free (Exacerbation-free Survival Rate): 24 weeks, ITT, 15 mg BID; for Estimated Percentage Exacerbation-Free (Exacerbation-free Survival Rate): Kaplan-Meier estimate
# Description: as §1, with “studies. Study B included a 2-week, randomised, double-blind, run-out phase to examine the effects of discontinuation of treatment. Patients who received Ariflo during the initial 24 week period, were randomized (1:1 ratio) to Ariflo 15 mg BID or placebo for the run-out phase; patients who received placebo during the initial 24 weeks, continued on placebo during the run-out phase.” for “studies.”
# [3] = test system: COPD exacerbations in patients with COPD; assay: Clinical Study C: placebo-controlled, double-blind 6-month study of Ariflo 15 mg BID in COPD patients; type: in vivo, human; settings: for Number of Patients Exacerbation-free / Estimated Percentage Exacerbation-Free (Exacerbation-free Survival Rate): 24 weeks, ITT, 15 mg BID; for Estimated Percentage Exacerbation-Free (Exacerbation-free Survival Rate): Kaplan-Meier estimate
# Description: as §1
# [4] = targeted for the treatment of multi-infarct dementia; 'may include'; cited from earlier work
# [5] = developed as an antidepressant; cited from earlier work
# [6] = 15 mg immediate release tablet BID
smiles,measurement,setting,value
"COc1ccc([C@]2(C#N)CC[C@@H](C(=O)O)CC2)cc1OC1CCCC1 [SB207499, cis-4-cyano-4-[3-(cyclopentyloxy)-4-methoxyphenyl]cyclohexane-1-carboxylic acid]",estimated percentages of patients exacerbation-free compared to placebo,"[1]; 15 mg IR tablet BID, P=0.008",significantly greater
same,incidence of all categories of exacerbations and of more severe exacerbations (Levels 2 and 3) versus placebo,[1]; [6],lower incidence
same,reduction of the risk of an exacerbation requiring treatment by a physician or hospitalization,"[1]; 15 mg immediate release tablet BID, Kaplan-Meier estimates, P=0.001",45%
same,reduction of the risk of having an exacerbation relative to placebo,"[1]; 15 mg immediate release tablet BID, Kaplan-Meier estimates, P=0.002",39%
same,Number of Patients Exacerbation-free,"[1]; All Exacerbations, of 431 patients",336
same,Estimated Percentage Exacerbation-Free (Exacerbation-free Survival Rate),"[1]; All Exacerbations, placebo 62.4",74.0%
same,Number of Patients Exacerbation-free,[1]; Level 2 and 3 Exacerbations,364
same,Estimated Percentage Exacerbation-Free (Exacerbation-free Survival Rate),"[1]; Level 2 and 3 Exacerbations, placebo 69.7",81.7%
same,estimated percentages of patients exacerbation-free compared to placebo,"[2]; 15 mg IR tablet BID, P=0.004",significantly greater
same,incidence of all categories of exacerbations and of more severe exacerbations (Levels 2 and 3) versus placebo,[2]; [6],lower incidence
same,Number of Patients Exacerbation-free,"[2]; All Exacerbations, of 469 patients",318
same,Estimated Percentage Exacerbation-Free (Exacerbation-free Survival Rate),"[2]; All Exacerbations, placebo 51.1",63.9%
same,Number of Patients Exacerbation-free,[2]; Level 2 and 3 Exacerbations,367
same,Estimated Percentage Exacerbation-Free (Exacerbation-free Survival Rate),"[2]; Level 2 and 3 Exacerbations, placebo 64.3",75.5%
same,reduction of the risk of an exacerbation requiring treatment by a physician or hospitalization (Levels 2 and 3),"[2]; over 26 weeks, P=0.004",32%
same,reduction of the risk of having an exacerbation relative to placebo,"[2]; over 26 weeks, P=0.005",30%
same,affect on exacerbations,[3]; 15 mg BID over 6 months,marginal
same,efficacy in treating COPD,[3]; 15 mg BID over 6 months,equivocal
same,Number of Patients Exacerbation-free,"[3]; All Exacerbations, of 474 patients",299
same,Estimated Percentage Exacerbation-Free (Exacerbation-free Survival Rate),"[3]; All Exacerbations, placebo 56.0",58.3%
same,Number of Patients Exacerbation-free,[3]; Level 2 and 3 Exacerbations,354
same,Estimated Percentage Exacerbation-Free (Exacerbation-free Survival Rate),"[3]; Level 2 and 3 Exacerbations, placebo 71.0",70.9%
CCCCn1c(=O)c2c(ncn2CC(C)=O)n(CCCC)c1=O [denbufylline],side effects,[4],"pyrosis, nausea and emesis"
COc1ccc(C2CNC(=O)C2)cc1OC1CCCC1 (stereo not drawn) [rolipram],side effects in clinical studies,[5],"psychotropic activity; also recorded: gastrointestinal effects, e.g., pyrosis, nausea and emesis"
